From PubChem BioAssay (NCI)
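Values below derive from 48-hour exposures of cells grown in 96-well plates, with endpoints linearly interpolated between the two concentrations bracketing the appropriate inhibition level. TGI denotes the concentration required for complete inhibition of growth.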

How the values were obtained:
Assay in all cases: growth of human tumour cells (NCI), 48 h
786-0 renal = system: 786-0 renal
A498 renal = system: A498 renal
A549 NSCLC = system: A549 NSCLC
ACHN renal = system: ACHN renal
BT-549 breast = system: BT-549 breast
CAKI-1 renal = system: CAKI-1 renal
CCRF-CEM leukemia = system: CCRF-CEM leukemia
COLO 205 colon = system: COLO 205 colon
DU-145 prostate = system: DU-145 prostate
EKVX NSCLC = system: EKVX NSCLC
HCC-2998 colon = system: HCC-2998 colon
HCT-116 colon = system: HCT-116 colon
HCT-15 colon = system: HCT-15 colon
HL-60(TB) leukemia = system: HL-60(TB) leukemia
HOP-62 NSCLC = system: HOP-62 NSCLC
HOP-92 NSCLC = system: HOP-92 NSCLC
HS 578T breast = system: HS 578T breast
HT29 colon = system: HT29 colon
IGROV1 ovarian = system: IGROV1 ovarian
K-562 leukemia = system: K-562 leukemia
KM12 colon = system: KM12 colon
LOX IMVI melanoma = system: LOX IMVI melanoma
MALME-3M melanoma = system: MALME-3M melanoma
MCF7 breast = system: MCF7 breast
MDA-MB-231 breast = system: MDA-MB-231 breast
MDA-MB-435 = system: MDA-MB-435
MDA-N = system: MDA-N
MOLT-4 leukemia = system: MOLT-4 leukemia
NCI-H226 lung = system: NCI-H226 lung
NCI-H23 lung = system: NCI-H23 lung
NCI-H460 lung = system: NCI-H460 lung
NCI-H522 lung = system: NCI-H522 lung
NCI/ADR-RES ovarian = system: NCI/ADR-RES ovarian
OVCAR-3 ovarian = system: OVCAR-3 ovarian
OVCAR-4 ovarian = system: OVCAR-4 ovarian
OVCAR-5 ovarian = system: OVCAR-5 ovarian
OVCAR-8 ovarian = system: OVCAR-8 ovarian
PC-3 prostate = system: PC-3 prostate
RPMI-8226 leukemia = system: RPMI-8226 leukemia
RXF 393 renal = system: RXF 393 renal
SF-268 CNS = system: SF-268 CNS
SF-295 CNS = system: SF-295 CNS
SF-539 CNS = system: SF-539 CNS
SK-MEL-28 melanoma = system: SK-MEL-28 melanoma
SK-MEL-5 melanoma = system: SK-MEL-5 melanoma
SK-OV-3 ovarian = system: SK-OV-3 ovarian
SN12C renal = system: SN12C renal
SNB-75 CNS = system: SNB-75 CNS
SR leukemia = system: SR leukemia
SW-620 colon = system: SW-620 colon
T-47D breast = system: T-47D breast
TK-10 renal = system: TK-10 renal
U251 CNS = system: U251 CNS
UACC-257 melanoma = system: UACC-257 melanoma
UACC-62 melanoma = system: UACC-62 melanoma
UO-31 renal = system: UO-31 renal
M14 melanoma = system: M14 melanoma
SK-MEL-2 melanoma = system: SK-MEL-2 melanoma
SNB-19 CNS = system: SNB-19 CNS

Measured: TGI

O=c1c2c3c(sc2nc2n1N=C(c1ccc([N+](=O)[O-])cc1)CS2)CCCC3
not listed: M14 melanoma | SK-MEL-2 melanoma | SNB-19 CNS
> 100 µM: all other assays above

NC(N)=NS(=O)(=O)c1ccc(NC(=O)c2ccc3nc4ccccc4c(N)c3c2)cc1
not listed: A498 renal
> 100 µM: all other assays above
